Laboratory results from US9636419B2, “Targeting multiple receptors on a cell surface for specific cell targeting” (The University of Kansas, priority 2013, dated 2017).
Entries after “also recorded” stand apart in the source; their conditions may differ. Non-standard residues stand in square brackets, D forms with d. *: point of attachment. Cholesteryloxycarbonyl = CC(C)CCC[C@@H](C)[C@H]1CC[C@H]2[C@@H]3CC=C4C[C@@H](OC(=O)*)CC[C@]4(C)[C@H]3CC[C@]12C; mPEG = not defined here; Aib = CC(C)(N)C(=O)O; βAla = NCCC(=O)O

Tests used:
[1] = tested on: PC3-PSMA cells; test: Binding, uptake and co-localization of fluorophore-labeled aptamers (confocal microscopy, flow cytometry); type: cell-based; conditions: for internalization by cells: AF488-A9, DY650-E07; for colocalization in endosomes: aptamers combined, co-incubation 1 h
Experimental: To create targeted binary cytotoxins that selectively kill PSMA+/EGFR+ prostate cancer cells, the agents both accumulate in the same endosomal compartments.
Panels B-D show fluorescence micrographs of AF488-labled anti-PSMA apamer (Panel B) and a Dy650-labeled anti-EGFR aptamer (Panel C) following co-incubation with PC3-PSMA cells for 1 h. […] The binary agents are designed to selectively kill PSMA+/EGFR+ prostate cancer cells through the mechanism proposed here both accumulate in common endosomal compartments.

[2] = tested on: SKBR3 breast cancer cells; test: Release of disulfide-linked fluorophore from EGF or Herceptin conjugates, confocal microscopy; type: cell-based; conditions: fluorophore linked via disulfide to Herceptin or EGF, ED86 at 10-fold higher concentration
Experimental: In the middle panels, a non-targeted endosome disruptive peptide (ED86) was added. In the bottom panels, a targeted cholesterol modified endosome disruptive peptide (ED108) was added. […] In conjunction with our previous studies of disulfide-linked colchinol conjugates (see provisional application), these studies provide evidence that targeting of two distinct cell surface entities (e.g., two receptors or a receptor and membrane) with a cytotoxic conjugate and an endosome disruptive peptide can confer a synthetic lethal-type effect against cancer cell lines.

[3] = tested on: SKBR3 breast cancer cells
Experimental: Cellular viability was analyzed by flow cytometry after 72 h.

Substance	internalization by cells [1]	colocalization in endosomes [1]	release of disulfide-linked fluorophore into cytoplasm [2]	effect on cytotoxicity of the Herceptin-colchinol methyl ether disulfide conjugate [3]
A9: PSMA-binding aptamer, 2′F RNA (GGGACCGAAAAAGACCUGACUUCUAUACUAAGUCUACGUUCCC; 2'-fluoro modified RNA, pattern not given here) [Compound A9]	internalized by PC3-PSMA cells	colocalize in endosomes		
Cholesterol carbamate-(βAla)2-(Glu)2-mPEG-(βAla)4-(Aib)4-(Trp)2-Ala-Trp-Tyr-(Pro)2-Val-Val-CONH2 (Cholesteryloxycarbonyl-[βAla][βAla]EE[mPEG][βAla][βAla][βAla][βAla][Aib][Aib][Aib][Aib]WWAWYPPVV-NH2; reading uncertain) [ED108]			Release of the fluorophore from EGF or Herceptin into the cytosol and nucleus was observed; also recorded: release of a disulfide-linked fluorophore from the antibody Herceptin into the cytoplasm	synergistically enhances cytotoxicity
E07: EGFR-binding aptamer, 2′F RNA (GGACGGAUUUAAUCGCCGUAGAAAGCAUGUCAAAGCCGGAACCGUCC; 2'-fluoro modified RNA, pattern not given here) [Compound E07]	internalized by PC3-PSMA cells	colocalize in endosomes		
H2N-(Aib)4-(Trp)2-Ala-Trp-Tyr-(Pro)2-Val-Val-CONH2 (H-[Aib][Aib][Aib][Aib]WWAWYPPVV-NH2; SMILES CC(C)[C@H](NC(=O)[C@@H](NC(=O)[C@@H]1CCCN1C(=O)[C@@H]1CCCN1C(=O)[C@H](Cc1ccc(O)cc1)NC(=O)[C@H](Cc1c[nH]c2ccccc12)NC(=O)[C@H](C)NC(=O)[C@H](Cc1c[nH]c2ccccc12)NC(=O)[C@H](Cc1c[nH]c2ccccc12)NC(=O)C(C)(C)NC(=O)C(C)(C)NC(=O)C(C)(C)NC(=O)C(C)(C)N)C(C)C)C(N)=O) [ED86]			release was not observed	
